In brackets after ≈: the same amount, converted by molar mass.
How the values were obtained:
Assay type in all cases: cell-based
[1] = Cytotoxicity, microculture tetrazolium (MTT) test, H1HeLa; settings: human, H1HeLa cells (cervical adenocarcinoma, ATCC CRL-1958); H1HeLa (cervical adenocarcinoma), 24 h incubation, MTT; ± SD
Protocol: (§1) The cytotoxicity of biaryl monophosphines was tested in vitro in normal (VERO) and cancer-derived (H1HeLa) cells after 24 h of incubation using a microculture tetrazolium test. Table 2 presents the CC50 (concentrations decreasing the cellular viability by 50%) values calculated from dose–response cytotoxicity curves (Figure 4).
(§2) Cytotoxicity was evaluated using a microculture tetrazolium test as previously described, and details can be found in the Supplementary Materials. The cell lines used in the presented study were acquired from the American Type Culture Collection (ATCC); the one used for cytotoxicity testing included non-cancerous VERO (kidney; ATCC CCL-81) cells and cancer-originating H1HeLa (cervical adenocarcinoma; ATCC CRL-1958) cells. VERO cells were cultured in Dulbecco’s Modified Eagle’s Medium (DMEM; Corning, Tewksbury, MA, USA), while Eagle’s Minimum Essential Medium (MEM; Corning) was used for H1HeLa. Antibiotics (penicillin–streptomycin solution, Corning) and fetal bovine serum (FBS, Corning) were added to cell media. Cells were incubated in a 5% CO2 atmosphere at 37 °C (CO2 incubator, Panasonic Healthcare Co., Tokyo, Japan). Briefly, the monolayers of VERO or H1HeLa cells in 96-well plates (Falcon, Corning) were treated with serial dilutions of selected compounds for 24 h. After this, the medium was removed, the plates were washed with phosphate buffered saline (PBS; Corning), a 10% solution of (3-(4,5-dimethylthiazol-2-yl)-2,5-diphenyltetrazolium bromide (MTT; Sigma-Aldrich, St. Louis, MO, USA) (5 mg/mL) in FBS-free cell media was added, and the incubation continued for the next 4 h. Subsequently, the precipitated formazan crystals were dissolved, and after overnight incubation at 37 °C, the Synergy H1 Multi-Mode Microplate Reader (BioTek Instruments, Inc., Winooski, VT, USA) with Gen5 software (ver. 3.09.07; BioTek Instruments, Inc.) was used for absorbance acquisition (540 and 620 nm). Data was exported to GraphPad Prism (ver. 10) to calculate the CC50 values (50% cytotoxic concentration) from dose–response curves.
(§3) Aromaticity Tuning in Biaryl Monophosphines and Their Derivatives […]
(§4) Cell line maintenance and in vitro experiments
(§5) The cytotoxicity of selected biaryl monophosphines was evaluated in vitro towards normal VERO (ATCC, CCL-81) cells and cancer-derived cell line H1HeLa (cervical adenocarcinoma; ATCC (American Type Culture Collection) CRL-1958) using 3-(4,5-dimethylthiazol-2-yl)-2,5-diphenylte-trazolium bromide (MTT) based protocol.
(§6) Media used for in vitro culturing included Dulbecco's Modified Eagle's Medium (DMEM, Corning, Tewksbury, MA, USA) used for VERO cells and Modified Eagle Medium (MEM, Corning) used for H1HeLa. Cell media used in the experiments were supplemented with antibiotics (Penicil-lin-Streptomycin Solution, Corning) and fetal bovine serum (FBS, Corning) – 10% (cell passaging) and 2% (cell maintenance and experiments). Phosphate-buffered saline (PBS) and trypsin were bought from Corning, whereas MTT (3-(4,5-dimethylthiazol-2-yl)-2,5-diphenyltetrazolium bromide) from Sigma (Sigma-Aldrich, St. Louis, MO, USA). SDS was purchased from PanReac Applichem (Darmstadt, Germany). Incubation was carried out in a 5% CO2 atmosphere at 37°C (CO2 incubator, Panasonic Healthcare Co., Tokyo, Japan).
(§7) Concentrations of cells for passaging were as follows: VERO – 1.5*10^5 cells/mL, H1HeLa – 2*10^5 cells/mL. Routine observations of cell cultures and experiments were carried out using an in-verted microscope (CKX41, Olympus Corporation, Tokyo, Japan) equipped with a ca mera (Moti-cam 3+, Motic, Hong Kong), and the results were recorded (Motic Images Plus 2.0, Motic).
(§8) Stock solutions of biaryl monophosphines were prepared by dissolving the samples in cell culture grade DMSO (PanReac Applichem).
(§9) Evaluation of cytotoxicity
(§10) Cytotoxicity was tested using an MTT-based protocol. The cells were passaged into 96-well plates (Falcon, TC-treated, Corning) and, after overnight incubation, treated with serial dilutions of […]

H1HeLa cells = assay: as above; settings: H1HeLa, 24 h, microscopy
Protocol: as §1, §2, §3, §4, §5, §6, §7, §8, §9, §10

Gram-positive bacteria = assay: Antibacterial screening, summary over the three Gram-positive reference species; settings: range over three Gram-positive reference species
Protocol: The antimicrobial activities of a series of compounds 1–5 were tested through the utilization of seven reference species, encompassing both Gram-positive (Staphylococcus aureus ATCC 29213, Staphylococcus epidermidis ATCC 12228, Micrococcus luteus ATCC 10240) and Gram-negative (Escherichia coli ATCC 25922, Klebsiella pneumoniae ATCC 13883, Proteus mirabilis ATCC 12453, Acinetobacter baumannii ATCC 19606) bacteria as model microorganisms. For this purpose, microbial suspensions were prepared in sterile saline (0.85% NaCl) with an optical density of 0.5 McFarland standard, yielding a concentration of 150 × 10^6 CFU/mL (CFU, colony-forming units). All of the stock solutions of the tested compounds were dissolved in DMSO. Amoxicillin (Glentham Life Sciences Ltd., Corsham, UK) was used as a positive control.
The MIC values of the tested compounds were determined by serial twofold dilutions of 1–5 in Mueller Hinton Broth (MHB, Biomaxima, Lublin, Poland). The range of final 1–5 concentrations used was from 0.49 up to 1000 μg/mL, and for amoxicillin from 0.12 up to 250 μg/mL in the 96-well microtiter plates (Medlab, Raszyn, Poland), starting with 98 μL MHB and 2 μL bacterial inoculum added to each well. […] After incubation, the optical density of the microbial growth was measured at a wavelength of 600 nm using a microplate reader, the Biotek Elx800 (BioTek Instruments, Inc., Winooski, VT, USA). […]

MIC (Gram-positive bacteria) [µg/mL] | SMILES | CC50 at 24 h [1] [µg/mL] | influence on morphology of the cellular monolayer (H1HeLa cells; 12.5 µg/mL) | MBC (Gram-positive bacteria) [µg/mL] | influence on morphology of the cellular monolayer (H1HeLa cells; 1.6 µg/mL) | influence on morphology of the cellular monolayer (H1HeLa cells; 3.1 µg/mL) | influence on morphology of the cellular monolayer (H1HeLa cells; 6.3 µg/mL)
– | COc1cc(OC)c(-c2c(P(=O)(C3CCCCC3)C3CCCCC3)c(OC)c3ccccc3c2OC)c(OC)c1 [Compound 1, Dicyclohexyl[1,4-dimethoxy-3-(2,4,6-trimethoxyphenyl)naphthalen-2-yl]phosphane oxide] | 6.78 ± 0.27 | monolayer of H1Hela was destroyed | – | – | – | –
1.95 to 15.6 (≈ 3.85 to 30.9 µM) | COc1ccccc1-c1c(P(=O)(C2CCCCC2)C2CCCCC2)c(OC)c2ccccc2c1OC [Compound 2, Dicyclohexyl[1,4-dimethoxy-3-(2-methoxyphenyl)naphthalen-2-yl]phosphane oxide] | 5.92 ± 0.4 | monolayer of H1Hela was destroyed | > 1000 | – | – | –
– | COc1cc(OC)c(-c2c(P(=O)(C3CCCCC3)C3CCCCC3)c(O)c3ccccc3c2OC)c(OC)c1 [Compound 3, 2-(Dicyclohexylphosphoryl)-4-methoxy-3-(2,4,6-trimethoxyphenyl)naphthalen-1-ol] | 3.83 ± 0.33 | destroyed the cellular monolayer | – | the cellular monolayer resembled the control cells | only a fraction of shrunken cells visible | most of the cells showed cytotoxic damage
